Experiments:
Assay type in all cases: physicochemical
[1] = Stressing under various relative humidities (solid form by XRPD); conditions: for RH stability: solid form change after exposing to 58% RH / RH stability: solid form change after exposing to 75% RH: am = amorphous
Experimental: Stressing Under Various Relative Humidities (RH)
The jar was sealed and stored at either ambient temperature or in an oven at elevated temperature.
X-ray powder diffraction (XRPD) analyses were performed using a Shimadzu XRD-6000 X-ray powder diffractometer using Cu Kα radiation. The instrument is equipped with a long fine focus X-ray tube. The tube voltage and amperage were set to 40 kV and 40 mA, respectively. The divergence and scattering slits were set at 1° and the receiving slit was set at 0.15 mm. Diffracted radiation was detected by a NaI scintillation detector. A θ-2θ continuous scan at 3°/min (0.4 sec/0.02° step) from 2.5 to 40°2θ was used. A silicon standard was analyzed to check the instrument alignment. Data were collected and analyzed using XRD-6100/7000 v. 5.0. Samples were prepared for analysis by placing them in a sample holder.
X-ray powder diffraction (XRPD) analyses were performed using an Inel XRG-3000 diffractometer equipped with a CPS (Curved Position Sensitive) detector with a 2θ range of 120°. Real time data were collected using Cu—Kα radiation starting at approximately 4° 2θ at a resolution of 0.03° 2θ. The tube voltage and amperage were set to 40 kV and 30 mA, respectively. The monochromator slit was set at 5 mm by 160 μm. […] Samples were prepared for analysis by packing them into thin-walled glass capillaries. Each capillary was mounted onto a goniometer head that is motorized to permit spinning of the capillary during data acquisition. The samples were analyzed for 300 sec. Instrument calibration was performed using a silicon reference standard.

[2] = Rifaximin drying experiments (solid form by XRPD); conditions: for solid form after vacuum dried: vacuum dried (Table 1); for XRPD Form: vac oven 50° C., 1 day
Description: Dried materials obtained by vacuum drying or heating the hydrates were labeled “dry”. […] After a portion of the rifaximin was removed for XRPD analysis the remainder of the sample was dried under vacuum at ambient temperature for approximately one day. Solids were stored in a dessicator prior to analysis by XRPD. (FIG. 9)

[3] = Automated moisture sorption/desorption (MB / DVS); conditions: for Post-MB XRPD / Final Form post moisture sorption/desorption: sorption from 5% RH to 95% RH, desorption from 95% RH to 5% RH; for wt loss upon equilibration at 5% RH: moisture balance
Experimental: Automated Moisture Sorption/Desorption Moisture sorption/desorption data were collected on a VTI SGA-100 Vapor Sorption Analyzer. Sorption and desorption data were collected over a range of 5% to 95% relative humidity (RH) at 10% RH intervals under a nitrogen purge. Samples were not dried prior to analysis. Equilibrium criteria used for analysis were less than 0.0100% weight change in 5 minutes, with a maximum equilibration time of 3 hours if the weight criterion was not met. Data were not corrected for the initial moisture content of the samples. NaCl and PVP were used as calibration standards.

[4] = Milling experiments for amorphous rifaximin; conditions: scraped sides
Experimental: (§1) Vapor stressing experiments were done on amorphous material from two preparations: lyophilization from p-dioxane:water 1:1 and crash precipitation from ethyl acetate with heptane. […] The majority of the stressed samples appeared as clear red solutions after 6 days. Those solutions were placed in vials of antisolvent for vapor diffusion. Dry and wet milling experiments were conducted on amorphous materials from the two preparations mentioned above. Amorphous materials were recovered from the dry milling experiments.
A solid sample of rifaximin was charged to a milling container with a milling ball. Samples were milled for 5 or 15 minute intervals (2×5 minutes, 2×15 minutes, and 3×15 minutes) at 30 Hz using a Retsch MM200 mixer mill. Solids were scraped from the sides of the vial after each interval.

[5] = Stressing of amorphous rifaximin (vapor stress, vapor diffusion); conditions: for form from vapor diffusion experiment: water as an antisolvent
Experimental: as §1

[6] = first amorphous sample of Table 3 (footnote c, 3436-54)
[7] = second amorphous sample of Table 3 (footnote d, 3436-55)

SMILES: CO[C@H]1/C=C/O[C@@]2(C)Oc3c(C)c(O)c4c(O)c(c5c(nc6cc(C)ccn65)c4c3C2=O)NC(=O)/C(C)=C\C=C\[C@H](C)[C@H](O)[C@@H](C)[C@@H](O)[C@@H](C)[C@H](OC(C)=O)[C@@H]1C [Form β-2, Rifaximin]
- RH stability: solid form change ([1]; studied at 20% RH (footnote d)): α^d
- solid form after vacuum dried ([2]; listed as β-2): α dry

SMILES: CO[C@H]1/C=C/O[C@@]2(C)Oc3c(C)c(O)c4c(O)c(c5c(nc6cc(C)ccn65)c4c3C2=O)NC(=O)/C(C)=C\C=C\[C@H](C)[C@H](O)[C@@H](C)[C@@H](O)[C@@H](C)[C@H](OC(C)=O)[C@@H]1C [Form η, Rifaximin]
- solid form after vacuum dried ([2]; listed as η): η

SMILES: CO[C@H]1/C=C/O[C@@]2(C)Oc3c(C)c(O)c4c(O)c(c5c(nc6cc(C)ccn65)c4c3C2=O)NC(=O)/C(C)=C\C=C\[C@H](C)[C@H](O)[C@@H](C)[C@@H](O)[C@@H](C)[C@H](OC(C)=O)[C@@H]1C [Form β, Rifaximin, reference compound]
- XRPD Form ([1]; P2O5, 4 days): α dry

SMILES: CO[C@H]1/C=C/O[C@@]2(C)Oc3c(C)c(O)c4c(O)c(c5c(nc6cc(C)ccn65)c4c3C2=O)NC(=O)/C(C)=C\C=C\[C@H](C)[C@H](O)[C@@H](C)[C@@H](O)[C@@H](C)[C@H](OC(C)=O)[C@@H]1C [Form α-dry, Rifaximin]
- Final Form ([1]; 33% RH, 2 days): α
- Final Form ([1]; 33% RH, 7 days): α
- Final Form ([1]; 43% RH, 4 days): α + β
- Final Form ([1]; 43% RH, 11 days): β + (α)
- RH stability: solid form change after exposing to 58% RH ([1]; listed as α dry): β
- RH stability: solid form change after exposing to 75% RH ([1]; listed as α dry): β
- RH stability: solid form change after exposing to 94% RH ([1]; 94% RH): β
- Post-MB XRPD / Final Form post moisture sorption/desorption ([3]; listed as α dry): α dry
- XRPD Form [2]: α dry
- XRPD Form ([2]; vac oven 60° C.): α dry
- solid form after vacuum dried ([2]; listed as α dry): α dry

SMILES: CO[C@H]1/C=C/O[C@@]2(C)Oc3c(C)c(O)c4c(O)c(c5c(nc6cc(C)ccn65)c4c3C2=O)NC(=O)/C(C)=C\C=C\[C@H](C)[C@H](O)[C@@H](C)[C@@H](O)[C@@H](C)[C@H](OC(C)=O)[C@@H]1C [crash amorphous rifaximin, Rifaximin]
- hygroscopicity [3]: moderately hygroscopic

SMILES: CO[C@H]1/C=C/O[C@@]2(C)Oc3c(C)c(O)c4c(O)c(c5c(nc6cc(C)ccn65)c4c3C2=O)NC(=O)/C(C)=C\C=C\[C@H](C)[C@H](O)[C@@H](C)[C@@H](O)[C@@H](C)[C@H](OC(C)=O)[C@@H]1C [lyophilized amorphous rifaximin, Rifaximin]
- hygroscopicity [3]: moderately hygroscopic

SMILES: CO[C@H]1/C=C/O[C@@]2(C)Oc3c(C)c(O)c4c(O)c(c5c(nc6cc(C)ccn65)c4c3C2=O)NC(=O)/C(C)=C\C=C\[C@H](C)[C@H](O)[C@@H](C)[C@@H](O)[C@@H](C)[C@H](OC(C)=O)[C@@H]1C [Form ζ, Rifaximin]
- XRPD Form / Final Form after stability chamber ([1]; 75% RH at 40° C., 1 day): ζ + γ^e
- solid form after vacuum dried [2]: η or and γ + η

SMILES: CO[C@H]1/C=C/O[C@@]2(C)Oc3c(C)c(O)c4c(O)c(c5c(nc6cc(C)ccn65)c4c3C2=O)NC(=O)/C(C)=C\C=C\[C@H](C)[C@H](O)[C@@H](C)[C@@H](O)[C@@H](C)[C@H](OC(C)=O)[C@@H]1C [Form β-1, Rifaximin]
- RH stability: solid form change after exposing to 58% RH ([1]; listed as β-1): β + pk
- RH stability: solid form change after exposing to 75% RH ([1]; listed as β-1): β

SMILES: CO[C@H]1/C=C/O[C@@]2(C)Oc3c(C)c(O)c4c(O)c(c5c(nc6cc(C)ccn65)c4c3C2=O)NC(=O)/C(C)=C\C=C\[C@H](C)[C@H](O)[C@@H](C)[C@@H](O)[C@@H](C)[C@H](OC(C)=O)[C@@H]1C [amorphous, Rifaximin]
- form by XRPD analysis after storage ([1]; 58% RH for 8 days): remained amorphous
- RH stability: solid form change after exposing to 58% RH [1]: am
- RH stability: solid form change after exposing to 75% RH [1]: am
- DVS weight gain from 5-95% RH [3, 6]: 8.364% eight gain from 5-95%
- DVS weight loss from 95-5% RH [3, 6]: 10.989% weight loss from 95-
- wt loss upon equilibration at 5% RH ([3]; listed as Rifaximin Amorphous): 0.7% wt loss upon equilibration at 5% RH
- DVS weight gain from 5-95% RH [3, 7]: 7.843% weight gain from 5-
- DVS weight loss from 95-5% RH [3, 7]: 9.172% weight loss from 95-5%
- Post-MB XRPD / Final Form post moisture sorption/desorption ([3]; listed as Amorphous): amorphous
- Post-MB XRPD / Final Form post moisture sorption/desorption ([3]; listed as Amorphous rifaximin): amorphous
- Post-MB XRPD / Final Form post moisture sorption/desorption ([3]; listed as Rifaximin Amorphous): amorphous
- XRPD Result after milling ([4]; sample source CP from EtOAc with heptane, 10 min. at 30 Hz): amor-
- XRPD Result after milling ([4]; sample source lyophilization from p-dioxane: water 1:1, 10 min. at 30 Hz): amor-
- XRPD Result ([5]; DCM, VD w/ IPE, 11 days): amorphous
- XRPD Result ([5]; MEK, VD w/ IPE, 11 days): amorphous
- form from vapor diffusion experiment ([5]; methanol): Form β
- form from vapor diffusion experiment ([5]; tetrahydrofuran): Form β
- XRPD Result ([5]; toluene, VS, RT, 6 days, Amorphous Materials): amorphous
- XRPD Result ([5]; toluene, VS, RT, 6 days, listed as amorphous material): no peaks
- XRPD Result ([5]; water, VS, RT, 15 days): amorphous

SMILES: CO[C@H]1/C=C/O[C@@]2(C)Oc3c(C)c(O)c4c(O)c(c5c(nc6cc(C)ccn65)c4c3C2=O)NC(=O)/C(C)=C\C=C\[C@H](C)[C@H](O)[C@@H](C)[C@@H](O)[C@@H](C)[C@H](OC(C)=O)[C@@H]1C [Form γ, Rifaximin, reference compound]
- hygroscopicity [3]: hygroscopic
- wt loss upon equilibration at 5% RH [3]: 2.4%
